The results in this text go back to ChEMBL document CHEMBL5465560, “Selectivity Literature for EUbOPEN Chemogenomic Library” (2024).

Assay [1] deals with Serine/threonine-protein kinase SIK1 (Homo sapiens) (UniProt P57059). Kind of assay: Selectivity interaction (Upstate Kinase Profiler service (Millipore)) EUB0000056c SIK1. The settings on record: at 1 µM.
Assay [2] has as its system Tyrosine-protein kinase ABL1 (Homo sapiens), P00519 [Y253F]. The settings on record: at 10 µM.
Assay [3] addresses T1, Ephrin type-A receptor 3 (Homo sapiens) (UniProt P29320).
T1 sequence (whole entry): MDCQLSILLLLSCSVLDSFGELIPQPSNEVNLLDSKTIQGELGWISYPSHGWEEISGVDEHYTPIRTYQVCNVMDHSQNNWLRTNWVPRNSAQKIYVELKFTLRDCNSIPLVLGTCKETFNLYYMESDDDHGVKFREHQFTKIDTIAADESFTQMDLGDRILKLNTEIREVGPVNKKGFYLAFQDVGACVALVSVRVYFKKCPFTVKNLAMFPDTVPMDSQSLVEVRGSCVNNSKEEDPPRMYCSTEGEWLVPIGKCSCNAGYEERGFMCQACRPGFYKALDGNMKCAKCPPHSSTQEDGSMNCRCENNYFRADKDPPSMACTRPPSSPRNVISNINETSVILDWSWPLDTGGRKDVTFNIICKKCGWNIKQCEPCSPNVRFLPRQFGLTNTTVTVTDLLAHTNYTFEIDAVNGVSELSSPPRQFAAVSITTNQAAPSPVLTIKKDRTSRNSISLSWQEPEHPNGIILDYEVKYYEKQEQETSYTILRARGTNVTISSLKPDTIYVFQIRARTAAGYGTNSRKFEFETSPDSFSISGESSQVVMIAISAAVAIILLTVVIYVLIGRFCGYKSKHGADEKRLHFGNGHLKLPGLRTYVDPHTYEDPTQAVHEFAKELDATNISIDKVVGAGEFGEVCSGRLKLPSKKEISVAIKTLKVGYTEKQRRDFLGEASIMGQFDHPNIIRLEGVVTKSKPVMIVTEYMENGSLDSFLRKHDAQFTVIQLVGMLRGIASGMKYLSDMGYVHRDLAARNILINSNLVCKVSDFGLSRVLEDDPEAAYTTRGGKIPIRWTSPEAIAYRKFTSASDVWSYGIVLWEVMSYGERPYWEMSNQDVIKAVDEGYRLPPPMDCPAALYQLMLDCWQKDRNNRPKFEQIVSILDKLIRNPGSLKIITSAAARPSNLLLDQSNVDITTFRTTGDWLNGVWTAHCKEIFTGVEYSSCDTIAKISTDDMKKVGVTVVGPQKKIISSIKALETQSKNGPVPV
Nature of the assay: Selectivity interaction (KinomeScan (DiscoverX)) EUB0001079a EPHA3. The settings on record: at 1 µM.

Assay [4] concerns the target Serine/threonine-protein kinase OSR1 (Homo sapiens) (UniProt O95747). Kind of assay: Selectivity interaction (KinomeScan (DiscoverX)) EUB0000666a OXSR1. Conditions: at 10 µM.
Assay [5] concerns the target Serine/threonine-protein kinase 32C (Homo sapiens) (UniProt Q86UX6). Kind of assay: Selectivity interaction (LanthaScreen Eu Kinase Binding Assay) EUB0001632a STK32C. The settings on record: at 10 µM.
In assay [6] the target is Ribosomal protein S6 kinase alpha-1 (Homo sapiens, UniProt Q15418). Nature of the assay: Selectivity interaction (ActivX KiNativ screen (kinase selectivity in THP-1 cell lysates)) EUB0000639a RPS6KA1. The format is subcellular. The settings on record: lysate, at 0.2 µM.
Assay [7] concerns the target Proto-oncogene tyrosine-protein kinase receptor Ret (Homo sapiens, UniProt P07949). Nature of the assay: (§1) Selectivity interaction (KinomeScan (DiscoverX)) EUB0000229b RET. The settings on record: at 10 µM.
In assay [8] the test system is Proto-oncogene tyrosine-protein kinase receptor Ret (Homo sapiens), P07949 [V804M]. The assay is described as §1. The settings on record: at 1 µM.
Assay [9] relates to Proto-oncogene tyrosine-protein kinase receptor Ret (Homo sapiens), P07949 [V804L]. The description is as §1. Conditions: at 1 µM.
For assay [10], the target named is Receptor-interacting serine/threonine-protein kinase 2 (Homo sapiens, UniProt O43353). Nature of the assay: Selectivity interaction (KinomeScan (DiscoverX)) EUB0000595a RIPK2. Conditions: at 10 µM.
In assay [11] the target is Cyclin-dependent kinase 13 (Homo sapiens, UniProt Q14004). Nature of the assay: Selectivity interaction (ActivX KiNativ screen (ex vivo kinase selectivity in human PBMCs)) EUB0001619a CDK13. The settings on record: PBMC, at 1 µM. The format is cell-based.
In assay [12] the target is T2, Myosin-IIIb (Homo sapiens) (UniProt Q8WXR4).
T2 sequence (whole entry): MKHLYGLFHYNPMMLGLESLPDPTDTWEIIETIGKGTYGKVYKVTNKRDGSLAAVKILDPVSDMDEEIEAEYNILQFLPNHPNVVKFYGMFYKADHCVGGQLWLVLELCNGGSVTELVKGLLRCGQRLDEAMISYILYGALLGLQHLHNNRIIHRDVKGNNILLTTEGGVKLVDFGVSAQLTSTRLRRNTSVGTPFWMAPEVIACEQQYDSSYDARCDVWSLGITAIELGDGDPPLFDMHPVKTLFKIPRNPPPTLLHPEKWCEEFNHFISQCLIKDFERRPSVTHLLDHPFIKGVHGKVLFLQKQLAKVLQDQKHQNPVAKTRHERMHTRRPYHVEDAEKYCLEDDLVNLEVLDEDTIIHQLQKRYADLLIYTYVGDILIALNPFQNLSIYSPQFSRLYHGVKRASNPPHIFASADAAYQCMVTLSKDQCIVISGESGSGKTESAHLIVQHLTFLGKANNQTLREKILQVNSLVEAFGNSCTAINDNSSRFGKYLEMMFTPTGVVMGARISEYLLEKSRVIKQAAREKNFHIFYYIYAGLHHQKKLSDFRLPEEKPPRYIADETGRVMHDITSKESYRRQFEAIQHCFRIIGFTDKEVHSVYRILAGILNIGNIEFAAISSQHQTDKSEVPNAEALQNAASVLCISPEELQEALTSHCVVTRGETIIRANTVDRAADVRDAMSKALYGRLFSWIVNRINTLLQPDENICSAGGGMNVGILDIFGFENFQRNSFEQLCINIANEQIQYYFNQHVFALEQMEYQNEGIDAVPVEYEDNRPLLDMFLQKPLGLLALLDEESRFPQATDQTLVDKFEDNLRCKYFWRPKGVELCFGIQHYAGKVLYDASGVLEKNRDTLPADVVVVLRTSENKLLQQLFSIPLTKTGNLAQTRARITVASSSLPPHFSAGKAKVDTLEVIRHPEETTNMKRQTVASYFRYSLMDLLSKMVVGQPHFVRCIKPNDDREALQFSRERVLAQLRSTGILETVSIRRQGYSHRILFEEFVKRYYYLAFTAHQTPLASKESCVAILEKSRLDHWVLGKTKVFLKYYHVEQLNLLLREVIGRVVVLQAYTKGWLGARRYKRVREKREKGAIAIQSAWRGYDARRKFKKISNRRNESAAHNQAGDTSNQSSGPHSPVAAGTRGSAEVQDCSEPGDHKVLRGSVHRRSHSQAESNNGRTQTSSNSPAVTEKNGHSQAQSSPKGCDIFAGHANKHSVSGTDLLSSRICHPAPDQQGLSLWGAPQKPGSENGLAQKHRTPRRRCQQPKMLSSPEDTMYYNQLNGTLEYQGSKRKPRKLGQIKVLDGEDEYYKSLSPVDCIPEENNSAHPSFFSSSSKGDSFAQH
Nature of the assay: Selectivity interaction (KinomeScan (DiscoverX)) EUB0001619a MYO3B. Conditions: at 1 µM.

Sequence of Serine/threonine-protein kinase 32C (Homo sapiens) (Q86UX6 whole entry): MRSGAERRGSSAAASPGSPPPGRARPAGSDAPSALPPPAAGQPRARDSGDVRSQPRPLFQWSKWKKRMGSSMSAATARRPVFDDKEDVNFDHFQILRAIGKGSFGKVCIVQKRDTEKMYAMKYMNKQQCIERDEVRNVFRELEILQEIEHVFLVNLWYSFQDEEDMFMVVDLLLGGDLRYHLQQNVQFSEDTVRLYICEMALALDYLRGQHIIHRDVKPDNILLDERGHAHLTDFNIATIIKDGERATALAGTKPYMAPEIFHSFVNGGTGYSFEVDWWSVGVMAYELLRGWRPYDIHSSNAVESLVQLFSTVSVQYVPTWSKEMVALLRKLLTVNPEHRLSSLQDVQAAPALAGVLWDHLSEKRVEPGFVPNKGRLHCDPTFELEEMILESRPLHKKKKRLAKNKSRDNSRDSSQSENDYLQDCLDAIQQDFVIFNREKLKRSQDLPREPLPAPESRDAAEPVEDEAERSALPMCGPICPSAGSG
Sequence of Ribosomal protein S6 kinase alpha-1 (Q15418 whole entry): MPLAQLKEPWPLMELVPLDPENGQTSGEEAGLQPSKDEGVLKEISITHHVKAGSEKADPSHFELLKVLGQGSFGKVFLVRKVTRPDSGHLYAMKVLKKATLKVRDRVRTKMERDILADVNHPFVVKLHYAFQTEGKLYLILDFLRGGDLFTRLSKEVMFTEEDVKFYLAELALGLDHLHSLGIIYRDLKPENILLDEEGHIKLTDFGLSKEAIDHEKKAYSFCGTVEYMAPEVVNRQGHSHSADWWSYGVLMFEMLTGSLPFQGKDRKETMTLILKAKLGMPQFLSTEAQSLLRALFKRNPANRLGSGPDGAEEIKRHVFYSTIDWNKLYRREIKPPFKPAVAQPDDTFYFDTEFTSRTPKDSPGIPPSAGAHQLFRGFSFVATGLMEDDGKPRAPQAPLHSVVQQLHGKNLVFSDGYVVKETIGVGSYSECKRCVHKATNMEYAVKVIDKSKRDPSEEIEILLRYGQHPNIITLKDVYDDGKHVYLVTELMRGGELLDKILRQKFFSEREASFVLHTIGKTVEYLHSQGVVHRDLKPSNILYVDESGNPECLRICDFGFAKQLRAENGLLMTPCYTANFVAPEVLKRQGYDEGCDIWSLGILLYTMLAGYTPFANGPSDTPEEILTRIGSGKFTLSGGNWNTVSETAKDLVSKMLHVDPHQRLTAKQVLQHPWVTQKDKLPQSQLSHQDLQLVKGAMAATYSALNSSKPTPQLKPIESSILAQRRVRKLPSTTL
Sequence of Proto-oncogene tyrosine-protein kinase receptor Ret (Homo sapiens), P07949 [V804L] (P07949 whole entry V804L): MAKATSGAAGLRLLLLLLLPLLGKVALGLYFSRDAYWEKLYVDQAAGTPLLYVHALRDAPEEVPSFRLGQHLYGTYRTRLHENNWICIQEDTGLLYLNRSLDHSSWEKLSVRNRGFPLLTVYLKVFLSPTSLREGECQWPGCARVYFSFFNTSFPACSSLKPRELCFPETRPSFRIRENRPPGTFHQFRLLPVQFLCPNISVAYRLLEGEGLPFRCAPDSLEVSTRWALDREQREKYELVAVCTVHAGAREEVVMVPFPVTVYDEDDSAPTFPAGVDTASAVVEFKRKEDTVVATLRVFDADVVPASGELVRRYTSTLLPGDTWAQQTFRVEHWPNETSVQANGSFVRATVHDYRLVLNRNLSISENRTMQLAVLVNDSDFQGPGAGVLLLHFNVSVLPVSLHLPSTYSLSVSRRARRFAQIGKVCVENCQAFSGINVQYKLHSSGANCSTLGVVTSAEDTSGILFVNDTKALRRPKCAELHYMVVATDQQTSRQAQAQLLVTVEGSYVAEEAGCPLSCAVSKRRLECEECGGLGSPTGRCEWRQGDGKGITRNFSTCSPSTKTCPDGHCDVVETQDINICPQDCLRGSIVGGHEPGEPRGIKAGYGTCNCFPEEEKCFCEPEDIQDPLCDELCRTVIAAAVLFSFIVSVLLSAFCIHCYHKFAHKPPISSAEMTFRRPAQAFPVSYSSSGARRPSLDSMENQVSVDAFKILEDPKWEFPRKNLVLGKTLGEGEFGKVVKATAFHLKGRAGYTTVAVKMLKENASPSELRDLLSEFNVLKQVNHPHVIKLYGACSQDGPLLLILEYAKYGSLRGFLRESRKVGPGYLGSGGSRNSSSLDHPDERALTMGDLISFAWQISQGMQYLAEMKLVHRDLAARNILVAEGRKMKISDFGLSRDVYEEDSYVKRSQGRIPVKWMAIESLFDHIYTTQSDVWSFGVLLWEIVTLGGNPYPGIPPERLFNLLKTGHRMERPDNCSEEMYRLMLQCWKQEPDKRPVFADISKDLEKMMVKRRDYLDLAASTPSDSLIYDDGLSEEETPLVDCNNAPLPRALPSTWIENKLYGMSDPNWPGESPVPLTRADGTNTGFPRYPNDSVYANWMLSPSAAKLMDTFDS
Sequence of Serine/threonine-protein kinase OSR1 (Homo sapiens) (O95747 2-527 limits assumed): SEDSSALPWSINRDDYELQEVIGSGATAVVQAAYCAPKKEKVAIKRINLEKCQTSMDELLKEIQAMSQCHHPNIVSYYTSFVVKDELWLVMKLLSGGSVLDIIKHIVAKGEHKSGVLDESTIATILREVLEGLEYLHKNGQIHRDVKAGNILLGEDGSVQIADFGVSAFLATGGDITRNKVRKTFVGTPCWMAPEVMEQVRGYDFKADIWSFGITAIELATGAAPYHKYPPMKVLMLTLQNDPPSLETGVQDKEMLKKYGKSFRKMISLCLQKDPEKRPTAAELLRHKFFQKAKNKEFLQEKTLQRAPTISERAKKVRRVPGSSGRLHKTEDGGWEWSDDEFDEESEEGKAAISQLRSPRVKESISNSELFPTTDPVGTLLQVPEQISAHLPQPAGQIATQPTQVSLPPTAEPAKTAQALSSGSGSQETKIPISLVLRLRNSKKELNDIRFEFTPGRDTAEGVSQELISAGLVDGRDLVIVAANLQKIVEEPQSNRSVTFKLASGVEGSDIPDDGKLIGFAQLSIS
Sequence of Proto-oncogene tyrosine-protein kinase receptor Ret (P07949 whole entry): as the sequence (P07949 whole entry V804L) above, with L804V counted along it
Sequence of Proto-oncogene tyrosine-protein kinase receptor Ret (Homo sapiens), P07949 [V804M] (P07949 whole entry V804M): as the sequence (P07949 whole entry V804L) above, with L804M counted along it
Sequence of Receptor-interacting serine/threonine-protein kinase 2 (O43353 whole entry): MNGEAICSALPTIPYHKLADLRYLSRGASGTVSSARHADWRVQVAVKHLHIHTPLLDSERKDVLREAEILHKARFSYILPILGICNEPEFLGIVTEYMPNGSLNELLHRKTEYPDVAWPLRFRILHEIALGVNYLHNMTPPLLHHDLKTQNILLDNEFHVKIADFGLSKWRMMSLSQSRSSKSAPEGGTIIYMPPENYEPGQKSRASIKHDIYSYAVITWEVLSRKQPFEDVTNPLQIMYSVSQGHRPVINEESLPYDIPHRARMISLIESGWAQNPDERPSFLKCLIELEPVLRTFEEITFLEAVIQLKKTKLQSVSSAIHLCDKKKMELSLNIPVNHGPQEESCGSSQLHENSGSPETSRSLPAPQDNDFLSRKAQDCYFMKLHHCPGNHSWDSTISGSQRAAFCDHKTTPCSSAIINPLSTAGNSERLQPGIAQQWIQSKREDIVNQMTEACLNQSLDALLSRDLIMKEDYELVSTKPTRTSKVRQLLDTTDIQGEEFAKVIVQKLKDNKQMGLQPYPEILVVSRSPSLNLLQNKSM
Sequence of Serine/threonine-protein kinase SIK1 (Homo sapiens) (P57059 whole entry): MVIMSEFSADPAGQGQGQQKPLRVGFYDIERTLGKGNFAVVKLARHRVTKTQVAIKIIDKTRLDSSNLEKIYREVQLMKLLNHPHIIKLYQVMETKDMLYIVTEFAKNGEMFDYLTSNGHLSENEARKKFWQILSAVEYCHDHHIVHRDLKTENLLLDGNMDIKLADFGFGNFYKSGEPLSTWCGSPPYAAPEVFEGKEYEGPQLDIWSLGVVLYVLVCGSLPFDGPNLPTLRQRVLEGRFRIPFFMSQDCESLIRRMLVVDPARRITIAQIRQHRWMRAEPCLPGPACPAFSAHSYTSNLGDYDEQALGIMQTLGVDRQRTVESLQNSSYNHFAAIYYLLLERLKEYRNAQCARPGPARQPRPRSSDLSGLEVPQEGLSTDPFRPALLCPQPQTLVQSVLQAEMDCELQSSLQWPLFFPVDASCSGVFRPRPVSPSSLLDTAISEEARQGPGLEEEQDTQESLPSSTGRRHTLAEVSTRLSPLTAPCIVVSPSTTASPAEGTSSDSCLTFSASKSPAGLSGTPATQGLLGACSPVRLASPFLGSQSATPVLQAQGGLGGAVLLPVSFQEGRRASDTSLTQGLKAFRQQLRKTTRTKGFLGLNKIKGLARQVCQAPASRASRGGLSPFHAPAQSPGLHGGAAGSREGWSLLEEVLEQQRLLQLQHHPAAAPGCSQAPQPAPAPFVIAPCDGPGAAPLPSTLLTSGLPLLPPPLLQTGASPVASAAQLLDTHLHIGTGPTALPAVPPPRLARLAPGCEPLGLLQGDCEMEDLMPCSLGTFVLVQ

As to `Cc1ccc(-c2ccc3c(ccc4sc5c(c43)NC[C@@H](C)NC5=O)n2)cn1`, in assay [1], the % of inhibition worked out at 4%.
`CCN(CC)CCCCNc1ncc2cc(-c3cc(OC)cc(OC)c3)c(NC(=O)NC(C)(C)C)nc2n1` yielded a % of control in assay [2] of 100%.
In [3], `Nc1cnc(N2CCc3cc(S(=O)(=O)Nc4c(F)cc(Cl)cc4F)cc(N4CCCC4=O)c32)nc1` [TP-020n] gave a % of control of 78%.
In turn, `O=C(NOC[C@H](O)CO)c1ccc(F)c(F)c1Nc1ccc(I)cc1F` came in with a % of control in [4] of 100%.
`Cn1cc(-n2cnc3c(NCc4nc5cc(Cl)c(Cl)cc5[nH]4)nc(N4CCOCC4)nc32)cn1`: in [5], the % of inhibition is -34.6%.
`CC[C@@H]1[C@H](F)C(=O)N[C@@H]1COc1nccc2cc(C(N)=O)c(OC)cc12` [ZIMLOVISERTIB]: in assay [6], the % of inhibition was -12.2%.
Consider `COc1cc(N(C)c2ccnc3ccc(C(F)(F)F)cc23)cc(OC)c1OC`, for which the % binding amounted to 97% in assay [7], 89% in assay [8] and 96% in [9].
With `COCC(=O)NC/C=C/c1ccc2ncnc(Nc3ccc(Oc4ccc(C)nc4)c(C)c3)c2c1` [CP-724714], the % of control in assay [10] is 26%.
Turning to `N#Cc1cccc(-c2c[nH]c3ncnc(N4CCOCC4)c23)c1`, the % of inhibition in assay [11] worked out at 3%. In addition, in assay [12], the % of control amounted to 100%.
